# Reference: patent US20230365563A1, “QUINAZOLINE COMPOUND AND APPLICATION THEREOF” (SHANGHAI PHARMACEUTICALS HOLDING CO., LTD., priority 2020, published 2023)
# Where a name gives a salt, the structure may show the parent alone.
# Tests used:
# KRAS-G12D and SOS1 = target: T1, KRAS-G12D and SOS1 (Homo sapiens, UniProt P01116, G12D); test: Inhibition of KRAS-G12D/SOS1 binding (Cisbio binding kit, 665/615 ratio), Effect Embodiment A; conditions: read-out: GTP-KRAS-G12D:SOS1 IC50
# T1 construct: purchased
# T1 sequence (P01116 1-188 isoform P01116-2 G12D): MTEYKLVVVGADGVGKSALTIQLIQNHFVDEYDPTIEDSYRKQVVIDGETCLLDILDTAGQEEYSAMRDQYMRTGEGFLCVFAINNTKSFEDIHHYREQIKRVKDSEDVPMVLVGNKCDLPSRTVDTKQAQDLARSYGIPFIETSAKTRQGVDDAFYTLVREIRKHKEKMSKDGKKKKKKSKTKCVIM
# Method in brief: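 Compounds underwent 3-fold dilution from their storage solutions (11 points), were transferred to assay wells in duplicate with DMSO held at 1% final, and were briefly centrifuged.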
# KRAS_G12D and cRAF = target: T2, KRAS_G12D and cRAF (Homo sapiens, UniProt P01116, G12D); test: Inhibition of KRAS_G12D/cRAF binding (Cisbio binding kit, 665/615 ratio), Effect Embodiment B; conditions: read-out: GTP-KRAS-G12D:CRAF IC50
# T2 construct: purchased
# T2 sequence (P01116 1-188 isoform P01116-2 G12D): as above
# Protocol: Similarly, the first dilution point of the compound to be tested was its storage solution, and the solution was 3-fold diluted, with 11+0 points of dilution. Echo was used to transfer 0.2 μL gradient diluted solution of the compounds into a 384-well plate, with 2 duplicated wells for each compound, and the final concentration of DMSO was 1%. The solution was centrifuged for 1 min at 1000 rpm/min.
# IC50 of the compounds was fitted by Graphpad Prism 8 nonlinear regression equation: […]
# The IC50 (half inhibitory concentration) of the compound was obtained by using the following nonlinear fitting formula: […]
SMILES,IC50 (KRAS-G12D and SOS1),IC50 (KRAS_G12D and cRAF)
"CN(C)C1CN(c2nc(N3CCNCC3)c3cc(Cl)c(-c4cc(O)cc5ccccc45)c(F)c3n2)C1 (single isomer, unassigned) [Comparative embodiment a, reference compound]",1350 nM,7310 nM
"CO[C@H](COc1nc(N2CC3CCC(C2)N3)c2cc(Cl)c(-c3cc(O)cc4ccccc34)c(F)c2n1)CN1C2CCC1COC2 (single isomer, unassigned) [Compound 184, (4R or S)-4-(2-((2S)-3-(3-oxa-8-azabicyclo[3.2.1]octan-8-yl)-2-methoxypropoxy)-4-((1R,5S)-3,8-diazabicyclo[3.2.1]octan-3-yl)-6-chloro-8-fluoroquinazolin-7-yl)naphthalen-2-ol diformate]",113 nM,461 nM
"CC[C@@H]1CN(C[C@@H](C)COc2nc(N3CC4CCC(C3)N4)c3cc(Cl)c(-c4cc(O)cc5ccccc45)c(F)c3n2)C[C@H](CC)O1 (single isomer, unassigned) [Compound 219, 4-((S or R)-4-((1R,5S)-3,8-diazabicyclo[3.2.1]octan-3-yl)-6-chloro-2-((R)-3-((2R,6S)-2,6-diethylmorpholinyl)-2-methylpropoxy)-8-fluoroquinazolin-7-yl)naphthalen-2-ol formate]",17.4 nM,21.6 nM
"C[C@@H](COc1nc(N2CC3CCC(C2)N3)c2cc(Cl)c(-c3cc(O)cc4ccccc34)c(F)c2n1)CN1C[C@H](C)O[C@@H](C)C1 (single isomer, unassigned) [Compound 220, 4-((S or R)-4-((1R,5S)-3,8-diazabicyclo[3.2.1]octan-3-yl)-6-chloro-2-((R)-3-((2S,6S)-2,6-dimethylmorpholinyl)-2-methylpropoxy)-8-fluoroquinazolin-7-yl)naphthalen-2-ol formate]",19.3 nM,29.6 nM
"C[C@@H](COc1nc(N2CC3CCC(C2)N3)c2cc(Cl)c(-c3cc(O)cc4ccccc34)c(F)c2n1)CN1C[C@@H](C)OC[C@@H]1C (single isomer, unassigned) [Compound 226, 4-((S or R)-4-((1R,5S)-3,8-diazabicyclo[3.2.1]octan-3-yl)-6-chloro-2-((R)-3-((2R,5S)-2,5-dimethylmorpholinyl)-2-methylpropoxy)-8-fluoroquinazolin-7-yl)naphthalenol formate]",67.9 nM,154 nM
"CN(C)C1CN(c2nc(C3CCNCC3)c3cc(Cl)c(-c4cc(O)cc5ccccc45)c(F)c3n2)C1 [Compound 20a, (R or S)-4-(6-chloro-2-(3-(dimethylamino)azetidin-1l-yl)-8-fluoro-4-(piperidin-4-yl)quninazolin-7-yl)naphthalen-2-ol]",4800 nM,
"CN(C)CCCOc1nc2c(c(N3CCNCC3)n1)CCN(c1cc(O)cc3ccccc13)C2 [Compound 73, 4-(2-(3-(Dimethylamino)propoxy)-4-(piperazin-1-yl)-5,8-dihydropyrido[3,4-d]pyrimidin-7(6H)-yl)naphthalen-2-ol]",15700 nM,
"CN(C)C1CN(c2nc(N3CC(C(=N)N)C3)c3cc(Cl)c(-c4cc(O)cc5ccccc45)c(F)c3n2)C1 [Compound 77, (S)-1-(6-chloro-2-(3-(dimethylamino)azetidin-1-yl)-8-fluoro-7-(3-hydroxynaphthalen-1-yl)quinazolin-4-yl)azetidine-3-carboximidamide]",1040 nM,
"Oc1cc(-c2ncc3c(N4C[C@H]5CC[C@@H](C4)N5)nc(Oc4ccncc4)nc3c2F)c2ccccc2c1 [Compound 130, 4-(4-((1R,5S)-3,8-diazabicyclo[3.2.1]octan-3-yl)-8-fluoro-2-(pyridinyl-4-oxy)pyridyl[4,3-d]pyrimidin-7-yl)naphthalen-2-ol hydrochloride]",842 nM,
"Cn1ccnc1COc1nc(N2C[C@H]3CC[C@@H](C2)N3)c2cnc(-c3cc(O)cc4ccccc34)c(F)c2n1 [Compound 132, 4-(4-((1R,5S)-3,8-diazabicyclo[3.2.1]octan-3-yl)-8-fluoro-2-((1-methyl-1H-imidazol-2-yl)methoxy)pyridinyl[4,3-d]pyrimidin-7-yl)naphthalen-2-ol trifluoroacetate]",762 nM,
"CN1CC(F)(F)C[C@H]1COc1nc(N2CC3CCC(C2)N3)c2cnc(-c3cc(O)cc4ccccc34)c(F)c2n1 [Compound 135, 4-(4-((1R,5S)-3,8-diazabicyclo[3.2.1]octan-3-yl)-2-((S)-4,4-difluoro-1-methylpyrrolidin-2-yl)methoxy)-8-fluoropyridinyl[4,3-d]pyrimidin-7-yl)naphthalen-2-ol formate]",133 nM,
"Oc1cc(-c2ncc3c(N4C[C@H]5CC[C@@H](C4)N5)nc(OCCc4ccccn4)nc3c2F)c2ccccc2c1 [Compound 138, 4-(4-((1R,5S)-3,8-diazabicyclo[3.2.1]octan-3-yl)-8-fluoro-2-(2-(pyridin-2-yl)ethoxy)pyridyl[4,3-d]pyrimidin-7-yl)naphthalen-2-ol trifluoroacetate]",108 nM,
"CN1C[C@H]2C[C@H]2[C@H]1COc1nc(N2CC3CCC(C2)N3)c2cnc(-c3cc(O)cc4ccccc34)c(F)c2n1 [Compound 141, 4-(4-((1R,5S)-3,8-diazabicyclo[3.2.1]octan-3-yl)-8-fluoro-2-((1R,2S,5R)-3-methyl-3-azabicyclo[3.1.0]hexan-2-yl)methoxy)pyridin[4,3-d]pyrimidin-7-yl)naphthalen-2-ol dihydrochloride]",87.6 nM,
"CN1CCC[C@H]1COc1nc(N2CC3NC(C2)C2CC32)c2cnc(-c3cc(O)cc4ccccc34)c(F)c2n1 (stereo partly drawn) [Compound 158, 4-(8-Fluoro-2-((S)-1-methylpyrrolidin-2-yl)methoxy)-4-((1R,2R,4S,5S)-7,9-diazatricyclo[3.3.1.0^2,4]nonan-7-yl)pyridinyl[4,3-d]pyrimidin-7-yl)naphthalen-2-ol diformate]",199 nM,
"CN(C)CCCOc1nc(N2C[C@H]3CC[C@@H](C2)N3)c2ccn(-c3cc(O)cc4ccccc34)c(=O)c2n1 [Compound 161, 4-((1R,5S)-3,8-diazabicyclo[3.2.1]octan-3-yl)-2-(3-(dimethylamino)propoxy)-7-(3-hydroxynaphthalen-1-yl)pyrido[3,4-d]pyrimidin-8(7H)-one dihydrochloride]",> 10000 nM,

# The next lines start with the values.
IC50 (KRAS-G12D and SOS1),IC50 (KRAS_G12D and cRAF),SMILES
186 nM,431 nM,"Nc1cc(-c2c(Cl)cc3c(N4C[C@H]5CC[C@@H](C4)N5)nc(OCCCN4C5CCC4COC5)nc3c2F)c2ccccc2c1 (single isomer, unassigned) [Compound 192b, 4-((7S or 7R)-2-(3-(3-oxa-8-azabicyclo[3.2.1]octan-8-yl)propoxy)-4-((1R,5S)-3,8-diazabicyclo[3.2.1]octan-3-yl)-6-chloro-8-fluoroquinazolin-7-yl)naphthalen-2-amine tritrifluoroacetate]"
42.5 nM,109 nM,"CC(F)(COc1nc(N2CC3CCC(C2)N3)c2cc(Cl)c(-c3cc(O)cc4ccccc34)c(F)c2n1)CN1C2CCC1COC2 (single isomer, unassigned) [Compound 208a, ((4S or 4R)-4-(2-((2(R or S)-3-(3-oxa-8-azabicyclo[3.2.1]octan-8-yl)-2-fluoro-2-methylpropoxy)-4-((1R,5S)-3,8-diazabicyclo[3.2.1]octan-3-yl)-6-chloro-8-fluoroquinazolin-7-yl)naphthalen-2-ol formate]"
97.5 nM,272 nM,"CC(F)(COc1nc(N2CC3CCC(C2)N3)c2cc(Cl)c(-c3cc(O)cc4ccccc34)c(F)c2n1)CN1C2CCC1COC2 (single isomer, unassigned) [Compound 208b, (4S or 4R)-4-(2-((2(S or R)-3-(3-oxa-8-azabicyclo[3.2.1]octan-8-yl)-2-fluoro-2-methylpropoxy)-4-((1R,5S)-3,8-diazabicyclo[3.2.1]octan-3-yl)-6-chloro-8-fluoroquinazolin-7-yl)naphthalen-2-ol formate]"
90.9 nM,293 nM,"Oc1cc(-c2c(Cl)cc3c(N4CC5CCC(C4)N5)nc(OCC(CN4C5CCC4COC5)C4CC4)nc3c2F)c2ccccc2c1 (single isomer, unassigned) [Compound 209b, 4-((7S or 7R))-2-(2(S or R))-3-(3-oxa-8-azabicyclo[3.2.1]octan-8-yl)-2-cyclopropylpropoxy)-4-((1R,5S)-3,8-diazabicyclo[3.2.1]octan-3-yl)-6-chloro-8-fluoroquinazolin-7-yl)naphthalen-2-ol diformate]"
91.9 nM,579 nM,"Oc1cc(-c2c(Cl)cc3c(N4CC5CCC(C4)N5)nc(OCC(CN4C5CCC4COC5)C(F)(F)F)nc3c2F)c2ccccc2c1 (single isomer, unassigned) [Compound 218a, 4-((7S or 7R)-2-((2S or 2R)-2-((3-oxa-8-azabicyclo[3.2.1]octan-8-yl)methyl)-3,3,3-trifluoropropoxy)-4-((1R,5S)-3,8-diazabicyclo[3.2.1]octan-3-yl)-6-chloro-8-fluoroquinazolin-7-yl)naphthalen-2-ol diformate]"
1460 nM,,"CCc1cccc2cc(O)cc(-c3c(F)cc4c(N5CC6CCC(C5)N6)nc(OC[C@@]56CCCN5C[C@H](F)C6)nc4c3F)c12 (single isomer, unassigned) [Compound 285b, (R or S)-4-(4-((1R,5S)-3,8-diazacyclo[3.2.1]octan-3-yl)-6,8-difluoro-2-((2R,7aS)-2-fluorotetrahydro-1H-pyrrolidin-7a(5H-yl)methoxy)quinazolin-7-yl)-5-ethylnaphthalen-2-ol dihydrochloride]"
